Tested on: transformed PSC (human pancreatic stellate cells)
Assay: AlamarBlue Cell Viability Assay, PSC proliferation
Format: cell-based
Settings: mean of at least three independent experiments, NE: No effect

Question: Which “Inhibitory Effect (%) 20 μM” value does the source give for `COc1cc(OC)c2c(=O)cc(-c3ccc(O)cc3)oc2c1` [Compound 6, 2-(4-Hydroxy-phenyl)-5,7-dimethoxy-chromen-4-one] here?
Answer: no significant antiproliferative effect
